Reference: ChEMBL document CHEMBL4052721, “Gerontoxanthone B from Maclura cochinchinensis var. gerontogea exhibits anti-inflammatory potential as an aryl hydrocarbon receptor agonist” (Bioorg Med Chem, 2017)

Assays:
Type in all cases: cell-based
[1] = molecular target: T1, Aryl hydrocarbon receptor (Homo sapiens, UniProt P35869); assay: Agonist activity at AhR in human HepG2 cells at 10 uM after 42 hrs by luciferase reporter gene assay relative to control; details: read-out: FC
T1 sequence (P35869 whole entry): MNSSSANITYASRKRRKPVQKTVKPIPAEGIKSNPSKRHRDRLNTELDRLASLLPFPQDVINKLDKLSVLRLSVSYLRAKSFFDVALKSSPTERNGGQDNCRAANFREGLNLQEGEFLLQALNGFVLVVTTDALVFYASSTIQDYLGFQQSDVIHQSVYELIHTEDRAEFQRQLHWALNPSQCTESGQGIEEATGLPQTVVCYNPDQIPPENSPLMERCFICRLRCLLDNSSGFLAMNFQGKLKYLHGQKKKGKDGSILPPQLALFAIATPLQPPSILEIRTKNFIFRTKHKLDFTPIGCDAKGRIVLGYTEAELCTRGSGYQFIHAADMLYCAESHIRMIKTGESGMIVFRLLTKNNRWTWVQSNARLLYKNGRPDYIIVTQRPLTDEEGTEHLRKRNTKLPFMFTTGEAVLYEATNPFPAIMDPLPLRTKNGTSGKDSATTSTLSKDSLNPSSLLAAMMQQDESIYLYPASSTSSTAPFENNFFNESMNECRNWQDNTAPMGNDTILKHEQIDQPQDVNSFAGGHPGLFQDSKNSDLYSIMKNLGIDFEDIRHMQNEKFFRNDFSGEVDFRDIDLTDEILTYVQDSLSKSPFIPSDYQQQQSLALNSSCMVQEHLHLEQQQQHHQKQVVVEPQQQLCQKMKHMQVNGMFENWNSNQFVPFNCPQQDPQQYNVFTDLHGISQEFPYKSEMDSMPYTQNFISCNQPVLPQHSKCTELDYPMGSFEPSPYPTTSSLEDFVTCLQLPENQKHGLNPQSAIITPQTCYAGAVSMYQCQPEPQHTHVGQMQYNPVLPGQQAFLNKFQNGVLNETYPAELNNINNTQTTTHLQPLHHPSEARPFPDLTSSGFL

[2] = molecular target: T1, Aryl hydrocarbon receptor; assay: Agonist activity at AhR in human HepG2 cells at 1 to 10 uM after 42 hrs by luciferase reporter gene assay relative to control
[3] = molecular target: T1, Aryl hydrocarbon receptor; assay: Agonist activity at AhR in human HepG2 cells after 42 hrs by luciferase reporter gene assay
[4] = molecular target: T1, Aryl hydrocarbon receptor; assay: Agonist activity at AhR in human HuH7 cells assessed as reduction in IL-1beta induced increase in SAA1 mRNA level at 10 uM pretreated for 20 hrs followed by Il-1beta addition measured after 4 hrs by qRT-PCR analysis
[5] = molecular target: T1, Aryl hydrocarbon receptor; assay: Agonist activity at AhR in human HepG2 cells at 2.5 to 10 uM after 42 hrs in presence of AhR antagonist 3',4'-DMF by luciferase reporter gene assay
[6] = system: HepG2; assay: Cytotoxicity against human HepG2 cells at 20 uM; details: hepg2, 20 µM
[7] = molecular target: T1, Aryl hydrocarbon receptor; assay: Agonist activity at AhR in human HepG2 cells at 2.5 to 10 uM after 42 hrs in presence of AhR antagonist CH-223191 by luciferase reporter gene assay
[8] = molecular target: T1, Aryl hydrocarbon receptor; assay: Agonist activity at AhR in human HepG2 cells at 2.5 to 10 uM after 42 hrs in presence of AhR antagonist GNF-351 by luciferase reporter gene assay
[9] = molecular target: T1, Aryl hydrocarbon receptor; assay: Agonist activity at AhR in human HepG2 cells at 5 to 20 nM after 42 hrs in presence of AhR antagonist 3',4'-DMF by luciferase reporter gene assay
[10] = molecular target: T1, Aryl hydrocarbon receptor; assay: Agonist activity at AhR in human HuH7 cells assessed as reduction in IL-1beta induced increase in SAA1 mRNA level at 10 nM pretreated for 20 hrs followed by Il-1beta addition measured after 4 hrs by qRT-PCR analysis; details: 0.01 µM
[11] = molecular target: T1, Aryl hydrocarbon receptor; assay: Agonist activity at AhR in human HepG2 cells at 5 to 20 nM after 42 hrs in presence of AhR antagonist GNF-351 by luciferase reporter gene assay
[12] = system: HepG2; assay: Cytotoxicity against human HepG2 cells at 1 uM; details: hepg2, 1 µM

`CC(C)=CCc1c(O)ccc2oc3c4c(cc(O)c3c(=O)c12)OC(C)(C)C=C4` was tested, and the fold induction at 10 µM [1] was ≥ 2.

In the case of `CC(C)=CCc1c(O)cc(O)c2c(=O)c3c(CC=C(C)C)c(O)ccc3oc12` [GERONTOXANTHONE H], the “fold change (FC)” value [2] is reported as “>= 2”.

With `C=CC(C)(C)c1c(O)cc2oc3c(O)c4c(cc3c(=O)c2c1O)C=CC(C)(C)O4` [GERONTOXANTHONE B] the “fold change (FC)” value [2] was “>= 2”, the Activity [3] was “Dose-dependent effect” and the Activity [4] was “Active”. The Activity [5] was “Not Active”, the Activity [6] was “Toxic” and the Activity [7] was “Active”. For the same molecule, the Activity [8] was “Not Active”.

For `Clc1cc2c(cc1Cl)Oc1cc(Cl)c(Cl)cc1O2` [2,3,7,8-TETRACHLORODIBENZO-P-DIOXIN], the Activity [9] was “Not Active”, the Activity [10] was “Active” and the Activity [11] was “Not Active”.

`C=CC(C)(C)c1c(O)c(CC=C(C)C)c(O)c2c(=O)c3ccc(O)c(O)c3oc12` [GERONTOXANTHONE I] was tested, and the fold induction at 10 µM [1] was ≥ 2.

With `C=CC(C)(C)c1c(O)cc2oc3c(O)c(OCC=C(C)C)ccc3c(=O)c2c1O` the “fold change (FC)” value [2] was “>= 2”.

`CC1Oc2cc3oc4c(O)c5c(cc4c(=O)c3c(O)c2C1(C)C)C=CC(C)(C)O5` (stereo unspecified) [GERONTOXANTHONE A] was tested, and the “fold change (FC)” value [2] was “>= 2” and the Activity [12] was “Toxic”.
